Experiment [1] has as its target T1, 5'-nucleotidase (Rattus norvegicus) (UniProt P21588).
T1 sequence (whole entry): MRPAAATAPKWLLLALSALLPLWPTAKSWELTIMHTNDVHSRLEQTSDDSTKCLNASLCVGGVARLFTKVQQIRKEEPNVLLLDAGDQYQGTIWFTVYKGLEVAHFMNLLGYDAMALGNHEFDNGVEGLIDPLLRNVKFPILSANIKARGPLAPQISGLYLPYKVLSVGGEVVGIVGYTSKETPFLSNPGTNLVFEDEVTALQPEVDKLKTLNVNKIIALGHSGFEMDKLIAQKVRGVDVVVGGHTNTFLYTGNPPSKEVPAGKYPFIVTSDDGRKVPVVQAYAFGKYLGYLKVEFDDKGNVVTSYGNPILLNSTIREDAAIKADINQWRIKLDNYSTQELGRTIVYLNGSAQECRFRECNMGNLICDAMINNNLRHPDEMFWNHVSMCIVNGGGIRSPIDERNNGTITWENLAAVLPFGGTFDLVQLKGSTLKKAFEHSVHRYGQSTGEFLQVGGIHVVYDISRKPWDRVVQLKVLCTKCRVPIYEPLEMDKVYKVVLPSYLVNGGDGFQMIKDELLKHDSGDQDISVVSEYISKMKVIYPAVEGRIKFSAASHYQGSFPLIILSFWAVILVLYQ
Briefly: Inhibition of recombinant rat ecto-5' nucleotidase expressed in COS7 cell membranes assessed as inorganic phosphate release using AMP as substrate at 100 uM preincubated for 10 mins followed by substrate addition and measured after 20 mins by malachite green dye based spectrophotometry relative to control.

For experiment [2], the target named is T2, 5'-nucleotidase (Homo sapiens, UniProt P21589). Briefly: Inhibition of recombinant human ecto-5' nucleotidase expressed in COS7 cell membranes assessed as inorganic phosphate release using AMP as substrate at 100 uM preincubated for 10 mins followed by substrate addition and measured after 20 mins by malachite green dye based spectrophotometry relative to control.
Target sequence in this assay (P21589 whole entry): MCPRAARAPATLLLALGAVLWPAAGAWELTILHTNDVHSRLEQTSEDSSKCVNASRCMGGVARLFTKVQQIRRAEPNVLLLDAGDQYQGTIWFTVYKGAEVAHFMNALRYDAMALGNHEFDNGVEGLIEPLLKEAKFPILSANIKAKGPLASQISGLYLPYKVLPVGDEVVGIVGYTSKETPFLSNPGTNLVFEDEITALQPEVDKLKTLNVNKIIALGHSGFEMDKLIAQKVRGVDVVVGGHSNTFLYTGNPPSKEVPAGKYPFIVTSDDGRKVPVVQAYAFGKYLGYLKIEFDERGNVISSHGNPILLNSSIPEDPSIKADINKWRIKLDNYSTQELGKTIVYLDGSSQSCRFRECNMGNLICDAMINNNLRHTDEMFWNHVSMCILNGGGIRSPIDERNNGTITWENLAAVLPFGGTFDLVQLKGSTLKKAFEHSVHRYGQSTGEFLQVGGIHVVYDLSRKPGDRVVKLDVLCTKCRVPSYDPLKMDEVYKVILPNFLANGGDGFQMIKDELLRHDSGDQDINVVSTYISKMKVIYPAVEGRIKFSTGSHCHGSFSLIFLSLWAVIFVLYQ

Experiment [3] in a line: Selectivity index, ratio of IC50 for recombinant rat ecto-5' nucleotidase expressed in COS7 cell membranes to IC50 for recombinant human ecto-5' nucleotidase expressed in COS7 cell membranes. Type of experiment: cell-based.
The target of experiment [4] is T3, 5'-nucleotidase (Rattus norvegicus, UniProt P21588).
T3 sequence (P21588 whole entry): T1 sequence (whole entry)
Briefly: Inhibition of recombinant rat ecto-5' nucleotidase expressed in COS7 cell membranes assessed as inorganic phosphate release using AMP as substrate uM preincubated for 10 mins followed by substrate addition and measured after 20 mins by malachite green dye based spectrophotometry.

Experiment [5] deals with T2, 5'-nucleotidase. Description: Inhibition of recombinant human ecto-5' nucleotidase expressed in COS7 cell membranes assessed as inorganic phosphate release using AMP as substrate preincubated for 10 mins followed by substrate addition and measured after 20 mins by malachite green dye based spectrophotometry.
Target sequence in this assay (P21589 whole entry): as above
Experiment [6] concerns the target T2, 5'-nucleotidase. Description: Potency index, ratio of sulfamic acid IC50 to compound IC50 for human ecto-5' nucleotidase expressed in COS7 cell membranes assessed as inorganic phosphate release using AMP as substrate preincubated for 10 mins followed by substrate addition and measured after 20 mins by malachite green dye based ….
Target sequence in this assay (P21589 whole entry, looked up): as the sequence (P21589 whole entry) above
Experiment [7] deals with T2, 5'-nucleotidase. Description: Noncompetitive inhibition of human ecto-5' nucleotidase assessed as increase in Km with constant Vmax at 0 to 0.6 uM by Lineweaver-Burk plot analysis. The following applies: dose microM 0-0.6.
Target sequence in this assay (P21589 whole entry): as above
Experiment [8] concerns the target T2, 5'-nucleotidase. Briefly: Inhibition of recombinant human ecto-5' nucleotidase expressed in COS7 cell membranes using AMP as substrate preincubated for 10 mins followed by substrate addition and measured after 20 mins by capillary electrophoresis method.
Target sequence in this assay (P21589 whole entry): as above
The target in experiment [9] is T1, 5'-nucleotidase (Rattus norvegicus). Briefly: Uncompetitive inhibition of rat ecto-5' nucleotidase assessed as increase in Km with constant Vmax at 0 to 0.6 uM by Lineweaver-Burk plot analysis. The following applies: dose microM 0-0.6.

Each structure is given as a SMILES string. Active and inactive are the calls of the source. The calls are words filed in the database; no cut-off is given here.

Consider 13 molecules from ChEMBL document CHEMBL4725489, “Synthesis, Characterization, and In Silico Studies of Novel Spirooxindole Derivatives as Ecto-5'-Nucleotidase Inhibitors” (ACS Med Chem Lett, 2020).

Consider `Cc1[nH]nc2c1C1(C(=O)N(C)c3ccc([N+](=O)[O-])cc31)C(C#N)=C(N)N2` (centres undefined), for which the inhibition in experiment [1] stood at 45.1%; at 5'-nucleotidase [2] it was 34.3%.

In the case of `CN1C(=O)C2(C(C#N)=C(N)Nc3n[nH]cc32)c2cc(F)ccc21` (centres undefined), the Ratio IC50 in experiment [3] was 17.3. Further, the IC50 stood at 7990 nM on 5'-nucleotidase [4] and 460 nM on 5'-nucleotidase [5].

Consider `CN1C(=O)C2(C(C#N)=C(N)Nc3n[nH]cc32)c2cc([N+](=O)[O-])ccc21` (centres undefined), for which the inhibition at 5'-nucleotidase [2] came out at 38%. Besides, the IC50 at 5'-nucleotidase [4] came to 2120 nM.

As to `CN1C(=O)C2(C(C#N)=C(N)Nc3n[nH]cc32)c2cc(OC(F)(F)F)ccc21` (centres undefined), the Ratio IC50 on 5'-nucleotidase [6] stood at 280. Besides, the figures for the IC50 at 5'-nucleotidase [4] and at 5'-nucleotidase [5] were 520 nM and 150 nM, respectively. Also, the inhibition entry at 5'-nucleotidase [7] is “Active”.

As for `Cc1[nH]nc2c1C1(C(=O)N(C)c3ccc(OC(F)(F)F)cc31)C(C#N)=C(N)N2` (centres undefined), the values for the IC50 at 5'-nucleotidase [4] and on 5'-nucleotidase [5] were 3560 nM and 180 nM, respectively.

Turning to `CN1C(=O)C2(C(C#N)=C(N)Nc3n[nH]cc32)c2cc(Cl)ccc21` (centres undefined), the inhibition at 5'-nucleotidase [2] is 39.7%. The IC50 on 5'-nucleotidase [4] turned out to be 680 nM.

For the molecule `CN1C(=O)C2(C(C#N)=C(N)Nc3n[nH]cc32)c2ccccc21` (centres undefined), the inhibition in experiment [1] worked out at 41%. In addition, the IC50 on 5'-nucleotidase [5] stood at 690 nM.

Turning to `N#CC1=C(N)Nc2n[nH]cc2C12C(=O)Nc1ccccc12` (centres undefined), the values for the inhibition (in experiment [1]; on 5'-nucleotidase [2]) were 41.7% and 27.6%, respectively.

On to `Cc1ccc(-n2nc(C)c3cc(Cl)c(-c4cc(C)ccc4O)nc32)cc1`, for which the IC50 at 5'-nucleotidase [8] came out at 320 nM.

`Cc1[nH]nc2c1C1(C(=O)N(C)c3ccc(F)cc31)C(C#N)=C(N)N2` (centres undefined): the half-maximal inhibitory concentration (IC50) was 5010 nM at 5'-nucleotidase [4] and 260 nM at 5'-nucleotidase [5].

As for `Cc1[nH]nc2c1C1(C(=O)Nc3ccccc31)C(C#N)=C(N)N2` (centres undefined), the inhibition in experiment [1] was determined as 36.5%; at 5'-nucleotidase [2] it was 33%.

Regarding `Cc1[nH]nc2c1C1(C(=O)N(C)c3ccccc31)C(C#N)=C(N)N2` (centres undefined), on 5'-nucleotidase [2], the inhibition was found to be 36.6%. The inhibition entry in experiment [9] is “Active”. Further, at 5'-nucleotidase [4], the IC50 stood at 190 nM.

As to `Cc1[nH]nc2c1C1(C(=O)N(C)c3ccc(Cl)cc31)C(C#N)=C(N)N2` (centres undefined), the inhibition at 5'-nucleotidase [2] is 33%. Moreover, the IC50 on 5'-nucleotidase [4] is 1560 nM.

The inhibition is how much of the control response was suppressed. For orientation: IC50 means the concentration needed to halve the response being measured.
